Assay results: ChEMBL document CHEMBL3046647, “Khayasin and 2S-methylbutanoylproceranolide: Promising candidate insecticides for the control of the coconut leaf beetle, Brontispa longissima” (2011)
Values after ≈ are worked out from the molar mass of the structure shown.

Columns and labels:
Type in all cases: functional
Brontispa longissima [1] = assay: Insecticidal activity against Brontispa longissima fifth-instar larvae fed on compound pre-treated Cocos nucifera L. leaves assessed as insect mortality at 50 ug/ml measured 12 hr after compound treatment; settings: in Cocos nucifera
Brontispa longissima [2] = assay: Insecticidal activity against Brontispa longissima fifth-instar larvae fed on compound pre-treated Cocos nucifera L. leaves assessed as insect mortality at 10 ug/ml measured 72 hr after compound treatment; settings: in Cocos nucifera
Brontispa longissima [3] = assay: Insecticidal activity against Brontispa longissima fifth-instar larvae fed on compound pre-treated Cocos nucifera L. leaves assessed as insect mortality at 10 ug/ml measured 12 hr after compound treatment; settings: in Cocos nucifera
Brontispa longissima [4] = assay: Insecticidal activity against Brontispa longissima fifth-instar larvae fed on compound pre-treated Cocos nucifera L. leaves assessed as insect mortality at 10 ug/ml measured 48 hr after compound treatment; settings: in Cocos nucifera
Brontispa longissima [5] = assay: Insecticidal activity against Brontispa longissima fifth-instar larvae fed on compound pre-treated Cocos nucifera L. leaves assessed as insect mortality at 50 ug/ml measured 48 hr after compound treatment; settings: in Cocos nucifera
Brontispa longissima [6] = assay: Insecticidal activity against Brontispa longissima fifth-instar larvae fed on compound pre-treated Cocos nucifera L. leaves assessed as insect mortality at 10 ug/ml measured 24 hr after compound treatment; settings: in Cocos nucifera
Brontispa longissima [7] = assay: Insecticidal activity against Brontispa longissima fifth-instar larvae fed on compound pre-treated Cocos nucifera L. leaves assessed as insect mortality at 50 ug/ml measured 72 hr after compound treatment; settings: in Cocos nucifera
Brontispa longissima [8] = assay: Insecticidal activity against Brontispa longissima fifth-instar larvae fed on compound pre-treated Cocos nucifera L. leaves assessed as insect mortality at 50 ug/ml measured 24 hr after compound treatment; settings: in Cocos nucifera
Brontispa longissima [9] = assay: Insecticidal activity against Brontispa longissima third-instar larvae fed on compound pre-treated Cocos nucifera L. leaves assessed as insect mortality at 50 ug/ml measured 24 hr after compound treatment; settings: in Cocos nucifera
Brontispa longissima [10] = assay: Insecticidal activity against Brontispa longissima fourth-instar larvae fed on compound pre-treated Cocos nucifera L. leaves assessed as insect mortality at 50 ug/ml measured 24 hr after compound treatment; settings: in Cocos nucifera
Brontispa longissima [11] = assay: Insecticidal activity against Brontispa longissima fourth-instar larvae fed on compound pre-treated Cocos nucifera L. leaves assessed as insect mortality at 50 ug/ml measured 72 hr after compound treatment; settings: in Cocos nucifera
Spodoptera litura [12] = assay: Antifeedant activity against Spodoptera litura third-instar larvae fed on compound pre-treated castor-oil plant leaves assessed as antifeedant rate at 1 mg/ml after 24 hr
Brontispa longissima [13] = assay: Insecticidal activity against Brontispa longissima fourth-instar larvae fed on compound pre-treated Cocos nucifera L. leaves assessed as insect mortality at 50 ug/ml measured 12 hr after compound treatment; settings: in Cocos nucifera
Spodoptera litura [14] = assay: Antifeedant activity against Spodoptera litura third-instar larvae fed on compound pre-treated castor-oil plant leaves assessed as antifeedant rate at 1 mg/ml after 48 hr
Brontispa longissima [15] = assay: Insecticidal activity against Brontispa longissima fourth-instar larvae fed on compound pre-treated Cocos nucifera L. leaves assessed as insect mortality at 50 ug/ml measured 48 hr after compound treatment; settings: in Cocos nucifera
Brontispa longissima [16] = assay: Insecticidal activity against Brontispa longissima second-instar larvae fed on compound pre-treated Cocos nucifera L. leaves assessed as insect mortality at 50 ug/ml measured 72 hr after compound treatment; settings: in Cocos nucifera
Spodoptera litura [17] = assay: Insecticidal activity against Spodoptera litura third-instar larvae fed on compound pre-treated Ricinus communis L. leaves assessed as insect mortality at 1 mg/ml measured 12 days after compound treatment; settings: in Ricinus communis
Brontispa longissima [18] = assay: Insecticidal activity against Brontispa longissima third-instar larvae fed on compound pre-treated Cocos nucifera L. leaves assessed as insect mortality at 50 ug/ml measured 12 hr after compound treatment; settings: in Cocos nucifera
Brontispa longissima [19] = assay: Insecticidal activity against Brontispa longissima second-instar larvae fed on compound pre-treated Cocos nucifera L. leaves assessed as insect mortality at 50 ug/ml measured 24 hr after compound treatment; settings: in Cocos nucifera
Brontispa longissima [20] = assay: Insecticidal activity against Brontispa longissima third-instar larvae fed on compound pre-treated Cocos nucifera L. leaves assessed as insect mortality at 50 ug/ml measured 48 hr after compound treatment; settings: in Cocos nucifera
Brontispa longissima [21] = assay: Insecticidal activity against Brontispa longissima second-instar larvae fed on compound pre-treated Cocos nucifera L. leaves assessed as insect mortality at 50 ug/ml measured 12 hr after compound treatment; settings: in Cocos nucifera
Brontispa longissima [22] = assay: Insecticidal activity against Brontispa longissima third-instar larvae fed on compound pre-treated Cocos nucifera L. leaves assessed as insect mortality at 50 ug/ml measured 72 hr after compound treatment; settings: in Cocos nucifera
Brontispa longissima [23] = assay: Insecticidal activity against Brontispa longissima second-instar larvae fed on compound pre-treated Cocos nucifera L. leaves assessed as insect mortality at 50 ug/ml measured 48 hr after compound treatment; settings: in Cocos nucifera
Brontispa longissima [24] = assay: Insecticidal activity against Brontispa longissima fifth-instar larvae fed on compound pre-treated Cocos nucifera L. leaves assessed as insect mortality measured 24 hr after compound treatment; settings: in Cocos nucifera
Brontispa longissima [25] = assay: Insecticidal activity against Brontispa longissima fifth-instar larvae fed on compound pre-treated Cocos nucifera L. leaves assessed as insect mortality at 5 ug/ml measured 48 hr after compound treatment; settings: in Cocos nucifera
Brontispa longissima [26] = assay: Insecticidal activity against Brontispa longissima fifth-instar larvae fed on compound pre-treated Cocos nucifera L. leaves assessed as insect mortality at 5 ug/ml measured 24 hr after compound treatment; settings: in Cocos nucifera
Brontispa longissima [27] = assay: Insecticidal activity against Brontispa longissima fifth-instar larvae fed on compound pre-treated Cocos nucifera L. leaves assessed as insect mortality at 5 ug/ml measured 72 hr after compound treatment; settings: in Cocos nucifera
Brontispa longissima [28] = assay: Insecticidal activity against Brontispa longissima fifth-instar larvae fed on compound pre-treated Cocos nucifera L. leaves assessed as insect mortality at 5 ug/ml measured 12 hr after compound treatment; settings: in Cocos nucifera
Brontispa longissima [29] = assay: Insecticidal activity against Brontispa longissima fifth-instar larvae fed on compound pre-treated Cocos nucifera L. leaves assessed as insect mortality measured 48 hr after compound treatment; settings: in Cocos nucifera
Spodoptera litura [30] = assay: Antifeedant activity against Spodoptera litura third-instar larvae fed on compound pre-treated castor-oil plant leaves assessed as antifeedant rate at 0.5 mg/ml after 24 hr
Brontispa longissima [31] = assay: Insecticidal activity against Brontispa longissima fifth-instar larvae fed on compound pre-treated Cocos nucifera L. leaves assessed as insect mortality at 1 ug/ml measured 72 hr after compound treatment; settings: in Cocos nucifera
Brontispa longissima [32] = assay: Insecticidal activity against Brontispa longissima fifth-instar larvae fed on compound pre-treated Cocos nucifera L. leaves assessed as insect mortality at 1 ug/ml measured 48 hr after compound treatment; settings: in Cocos nucifera
Brontispa longissima [33] = assay: Insecticidal activity against Brontispa longissima fifth-instar larvae fed on compound pre-treated Cocos nucifera L. leaves assessed as insect mortality at 1 ug/ml measured 24 hr after compound treatment; settings: in Cocos nucifera
Spodoptera litura [34] = assay: Insecticidal activity against Spodoptera litura third-instar larvae fed on compound pre-treated Ricinus communis L. leaves assessed as insect mortality at 0.5 mg/ml measured 12 days after compound treatment; settings: in Ricinus communis
Spodoptera litura [35] = assay: Antifeedant activity against Spodoptera litura third-instar larvae fed on compound pre-treated castor-oil plant leaves assessed as antifeedant rate at 0.5 mg/ml after 48 hr
Brontispa longissima [36] = assay: Insecticidal activity against Brontispa longissima fifth-instar larvae fed on compound pre-treated Cocos nucifera L. leaves assessed as insect mortality at 1 ug/ml measured 12 hr after compound treatment; settings: in Cocos nucifera
Brontispa longissima [37] = assay: Insecticidal activity against Brontispa longissima fifth-instar larvae fed on compound pre-treated Cocos nucifera L. leaves assessed as insect mortality at 25 ug/ml measured 24 hr after compound treatment; settings: in Cocos nucifera
Brontispa longissima [38] = assay: Insecticidal activity against Brontispa longissima fifth-instar larvae fed on compound pre-treated Cocos nucifera L. leaves assessed as insect mortality at 25 ug/ml measured 12 hr after compound treatment; settings: in Cocos nucifera
Brontispa longissima [39] = assay: Insecticidal activity against Brontispa longissima fifth-instar larvae fed on compound pre-treated Cocos nucifera L. leaves assessed as insect mortality at 25 ug/ml measured 48 hr after compound treatment; settings: in Cocos nucifera
Brontispa longissima [40] = assay: Insecticidal activity against Brontispa longissima fifth-instar larvae fed on compound pre-treated Cocos nucifera L. leaves assessed as insect mortality at 25 ug/ml measured 72 hr after compound treatment; settings: in Cocos nucifera

Compound | mortality at 50 µg/mL (Brontispa longissima [1]) | mortality at 10 µg/mL (Brontispa longissima [2]) | mortality at 10 µg/mL (Brontispa longissima [3]) | mortality at 10 µg/mL (Brontispa longissima [4]) | mortality at 50 µg/mL (Brontispa longissima [5]) | mortality at 10 µg/mL (Brontispa longissima [6]) | mortality at 50 µg/mL (Brontispa longissima [7]) | mortality at 50 µg/mL (Brontispa longissima [8]) | mortality at 50 µg/mL (Brontispa longissima [9]) | mortality at 50 µg/mL (Brontispa longissima [10]) | mortality at 50 µg/mL (Brontispa longissima [11]) | Activity (Spodoptera litura [12]) | mortality at 50 µg/mL (Brontispa longissima [13]) | Activity (Spodoptera litura [14]) | mortality at 50 µg/mL (Brontispa longissima [15]) | mortality at 50 µg/mL (Brontispa longissima [16]) | mortality at 1000 µg/mL (Spodoptera litura [17]) | mortality at 50 µg/mL (Brontispa longissima [18]) | mortality at 50 µg/mL (Brontispa longissima [19]) | mortality at 50 µg/mL (Brontispa longissima [20]) | also measured
C/C=C(\C)C(=O)O[C@H]1C[C@@H](OC(C)=O)[C@@]2(C(=O)OC)CO[C@H]3[C@@H](O)[C@@](C)([C@]45O[C@@]4(C)[C@@H]4C[C@H]5O[C@@H]5OC=C[C@@]54O)[C@H]4[C@]1(CO[C@]4(O)C(=O)OC)[C@@H]32 [AZADIRACHTIN A] | 3.33% | 63.3% | 20% | 56.7% | 10% | 46.7% | 10% | 10% | – | – | – | – | – | – | – | – | – | – | – | – | –
CC(=O)O[C@@H]1C[C@H](O)[C@@]23CO[C@@H](O)[C@]1(C)[C@@H]2C[C@@H](O)[C@]1(C)[C@@H]3C(=O)[C@H](OC(C)=O)[C@@]2(C)[C@H](c3ccoc3)C[C@H]3O[C@]321 [TOOSENDANIN] | – | – | – | – | – | – | – | – | 63.3% | 60% | 73.3% | 87.1% | 53.3% | 90.6% | 66.7% | 100% | 100% | 53.3% | 100% | 73.3% | mortality at 50 µg/mL (Brontispa longissima [21]): 96.7%; mortality at 50 µg/mL (Brontispa longissima [22]): 83.3%; mortality at 50 µg/mL (Brontispa longissima [23]): 100%
C=C(C)[C@H]1Cc2c(ccc3c2O[C@@H]2COc4cc(OC)c(OC)cc4[C@@H]2C3=O)O1 [ROTENONE] | 86.7% | 90% | 80% | 90% | 96.7% | 90% | 100% | 86.7% | – | – | – | – | – | – | – | – | – | – | – | – | LC50 (Brontispa longissima [24]): 5.32 µg/mL (≈ 13.5 µM); mortality at 5 µg/mL (Brontispa longissima [25]): 73.3%; mortality at 5 µg/mL (Brontispa longissima [26]): 66.7%; mortality at 5 µg/mL (Brontispa longissima [27]): 76.7%; mortality at 5 µg/mL (Brontispa longissima [28]): 60%; LC50 (Brontispa longissima [29]): 1.61 µg/mL (≈ 4.08 µM)
CCC(C)C(=O)OC1[C@@H]2CC3=C4CC(=O)O[C@@H](c5ccoc5)[C@]4(C)CCC3[C@@](C)(C2=O)[C@@H](CC(=O)OC)C1(C)C (some centres not stated) [KHAYASIN] | 96.7% | 86.3% | 71.8% | 79.3% | 100% | 79.3% | 100% | 100% | 100% | 100% | 100% | 48.4% | 100% | 53% | 100% | 100% | 50% | 100% | 100% | 100% | LC50 (Brontispa longissima [24]): 7.28 µg/mL (≈ 13.1 µM); Activity (Spodoptera litura [30]): 33.9%; mortality at 1 µg/mL (Brontispa longissima [31]): 26.7%; mortality at 1 µg/mL (Brontispa longissima [32]): 23.3%; mortality at 1 µg/mL (Brontispa longissima [33]): 20%; mortality at 500 µg/mL (Spodoptera litura [34]): 24.1%; Activity (Spodoptera litura [35]): 41.7%; LC50 (Brontispa longissima [29]): 3.39 µg/mL (≈ 6.11 µM); mortality at 50 µg/mL (Brontispa longissima [21]): 100%; mortality at 50 µg/mL (Brontispa longissima [22]): 100%; mortality at 50 µg/mL (Brontispa longissima [23]): 100%; mortality at 1 µg/mL (Brontispa longissima [36]): 23.3%
CC[C@H](C)C(=O)O[C@@H]1[C@H]2CC3=C4CC(=O)O[C@@H](c5ccoc5)[C@]4(C)CC[C@@H]3[C@@](C)(C2=O)[C@@H](CC(=O)OC)C1(C)C [2'S-METHYLBUTANOYLPROCERANOLIDE] | 96.7% | – | – | – | 96.7% | – | 100% | 96.7% | 7.14% | 0% | 0% | 48.4% | 0% | 53% | 0% | 23.3% | 50% | 3.57% | 6.67% | 7.14% | LC50 (Brontispa longissima [24]): 10.6 µg/mL (≈ 19.1 µM); Activity (Spodoptera litura [30]): 33.9%; mortality at 25 µg/mL (Brontispa longissima [37]): 80%; mortality at 25 µg/mL (Brontispa longissima [38]): 76.7%; mortality at 25 µg/mL (Brontispa longissima [39]): 83.3%; mortality at 500 µg/mL (Spodoptera litura [34]): 24.1%; Activity (Spodoptera litura [35]): 41.7%; LC50 (Brontispa longissima [29]): 4.03 µg/mL (≈ 7.27 µM); mortality at 50 µg/mL (Brontispa longissima [21]): 3.33%; mortality at 25 µg/mL (Brontispa longissima [40]): 86.7%; mortality at 50 µg/mL (Brontispa longissima [22]): 14.3%; mortality at 50 µg/mL (Brontispa longissima [23]): 16.7%
